Results on 9 molecules are retold here after PubChem BioAssay (NCI).

Some test systems named below: SK-MEL-28 melanoma; NCI-H460 lung; 786-0 renal; MOLT-4 leukemia; M14 melanoma; EKVX NSCLC; A498 renal; SF-268 CNS; HOP-62 NSCLC; HT29 colon.
Common to all, as to assay: growth of human tumour cells (NCI), 48 h

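96-well plates; 48 h exposure; 5 concentrations. Endpoints by linear interpolation between flanking doses. Not reached: highest tested concentration assigned. GI50 is the concentration that inhibits growth by half. Definition used: TGI = concentration required for complete inhibition of growth.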

For the molecule `CC(=O)Oc1ccc(/C=N/NC(N)=S)nc1`, the GI50 in the experiment with SK-MEL-28 melanoma is 25.5 µM; in the experiment with NCI-H460 lung, 9.36 µM; with 786-0 renal, 3.53 µM; in the experiment on MOLT-4 leukemia, 2.57 µM; with M14 melanoma, 2.72 µM; in the experiment on EKVX NSCLC it was 10.8 µM. For the same molecule, the GI50 in the experiment with A498 renal was 4.88 µM; with SF-268 CNS, 1.91 µM; in the experiment on HOP-62 NSCLC it was 6.15 µM; in the experiment with HT29 colon, 19 µM. Further, the TGI in the experiment with SK-MEL-28 melanoma was greater than 100 µM; with NCI-H460 lung, greater than 100 µM; in the experiment on 786-0 renal, 16.1 µM; in the experiment on MOLT-4 leukemia it was greater than 100 µM; in the experiment on M14 melanoma, 8.72 µM; with EKVX NSCLC it was greater than 100 µM. For the same molecule, the TGI was 58.9 µM with A498 renal, 8.59 µM with SF-268 CNS, 77.6 µM with HOP-62 NSCLC and greater than 100 µM in the experiment on HT29 colon.

`Nc1ccc(S(=O)(=O)Nc2cnc3c(Cl)cccc3n2)cc1`: the GI50 in the experiment with SK-MEL-28 melanoma is greater than 69.4 µM; with NCI-H460 lung, greater than 77.9 µM; in the experiment on MOLT-4 leukemia, 65.6 µM; in the experiment with HOP-62 NSCLC it was 24.6 µM; in the experiment on HT29 colon it was greater than 82.8 µM. Moreover, the TGI with SK-MEL-28 melanoma was 723 µM; with NCI-H460 lung, greater than 750 µM; in the experiment on 786-0 renal it was greater than 750 µM; in the experiment with MOLT-4 leukemia, 565 µM; in the experiment with M14 melanoma it was greater than 750 µM; in the experiment on EKVX NSCLC, 712 µM. Besides, the TGI in the experiment on A498 renal is 597 µM; in the experiment with SF-268 CNS, 704 µM; in the experiment with HOP-62 NSCLC, 188 µM; in the experiment on HT29 colon, greater than 750 µM.

For the molecule `CC1COCC(C)N1C1=C(Cl)C(=O)c2ccccc2C1=O` (stereo not given), the GI50 was 14.2 µM in the experiment with SK-MEL-28 melanoma; 15.8 µM in the experiment with NCI-H460 lung; 3.67 µM in the experiment with 786-0 renal; 2.77 µM with MOLT-4 leukemia; 6.53 µM in the experiment on M14 melanoma; 1.42 µM in the experiment with EKVX NSCLC. Besides, the GI50 with A498 renal is 14.4 µM; with SF-268 CNS, 7.85 µM; in the experiment on HOP-62 NSCLC, 14 µM; with HT29 colon, 17.5 µM. The TGI with SK-MEL-28 melanoma was found to be 27.9 µM; in the experiment with NCI-H460 lung it was 33.6 µM; in the experiment with 786-0 renal, 13.5 µM; in the experiment on MOLT-4 leukemia, 7.5 µM; in the experiment on M14 melanoma, 19.5 µM; with EKVX NSCLC it was 2.87 µM. Further, the TGI in the experiment on A498 renal came to 27.6 µM; in the experiment on SF-268 CNS, 21.1 µM; with HOP-62 NSCLC, 27.4 µM; in the experiment with HT29 colon, 45.6 µM.

For the molecule `CCOC(=O)C(NC(=O)c1[nH]cnc1/N=N/N(C)C)C(C)C` (stereo not given), the TGI in the experiment on SK-MEL-28 melanoma, with NCI-H460 lung, in the experiment with 786-0 renal, in the experiment with MOLT-4 leukemia, in the experiment with M14 melanoma and in the experiment with EKVX NSCLC was greater than 100 µM each time. The TGI in the experiment with A498 renal, with SF-268 CNS, in the experiment with HOP-62 NSCLC and in the experiment with HT29 colon was greater than 100 µM throughout.

Consider `CNC(=O)CN(CC(N)=O)C(N)=O`, for which the TGI with SK-MEL-28 melanoma, in the experiment on NCI-H460 lung, with 786-0 renal, in the experiment on MOLT-4 leukemia, in the experiment with M14 melanoma and with EKVX NSCLC was greater than 100 µM in each case. Moreover, the TGI with A498 renal, with SF-268 CNS, in the experiment on HOP-62 NSCLC and in the experiment on HT29 colon was greater than 100 µM throughout.

Turning to `C=[CH][Sn]([CH]=C)([O]c1cccc2cccnc12)[O]c1cccc2cccnc12`, the GI50 in the experiment with SK-MEL-28 melanoma is 4.03 µM; in the experiment with NCI-H460 lung it was 3.11 µM; with 786-0 renal it was 3.31 µM; in the experiment with MOLT-4 leukemia, 1.42 µM; with M14 melanoma it was 2.11 µM; with EKVX NSCLC, 5.58 µM. Moreover, the GI50 is 5.88 µM in the experiment with A498 renal, 5.12 µM in the experiment with SF-268 CNS, 10.7 µM in the experiment with HOP-62 NSCLC and 3.26 µM with HT29 colon. Also, the TGI in the experiment on SK-MEL-28 melanoma was determined as 10.5 µM; with NCI-H460 lung, 9.01 µM; in the experiment on 786-0 renal it was 9.29 µM; in the experiment on MOLT-4 leukemia, 11.1 µM; with M14 melanoma, 5.92 µM; in the experiment with EKVX NSCLC, 17.2 µM. Also, the TGI in the experiment with A498 renal stood at 14.2 µM; with SF-268 CNS, 29.9 µM; in the experiment on HOP-62 NSCLC, 32.8 µM; in the experiment with HT29 colon it was 7.14 µM.

Turning to `COC(=O)/C(=N\NC(N)=S)C(C#N)c1ccccc1` (stereo not given), the TGI in the experiment with SK-MEL-28 melanoma, in the experiment on NCI-H460 lung, in the experiment on 786-0 renal, in the experiment on MOLT-4 leukemia, with M14 melanoma and in the experiment on EKVX NSCLC was greater than 100 µM in each case. Moreover, the TGI in the experiment with A498 renal, in the experiment on SF-268 CNS, with HOP-62 NSCLC and with HT29 colon was greater than 100 µM in each case.

For the molecule `CC1CCC2N(C1)CC1C3(O)CC45OC6(O)C(O)CCC4(C)C6CCC5C3(O)CC(O)C1(O)C2(C)O` (stereo not given), the TGI with SK-MEL-28 melanoma, in the experiment on NCI-H460 lung, in the experiment with 786-0 renal, with MOLT-4 leukemia, in the experiment on M14 melanoma and in the experiment on EKVX NSCLC was greater than 100 µM in each case. The TGI in the experiment on A498 renal, in the experiment with SF-268 CNS, with HOP-62 NSCLC and with HT29 colon was greater than 100 µM each time.

As to `O=C(NCCCCCCCNC(=O)OCc1ccc2c(Cl)cc(Cl)c(O)c2n1)OCc1ccc2c(Cl)cc(Cl)c(O)c2n1`, the GI50 is 1.17 µM with SK-MEL-28 melanoma; 1.4 µM in the experiment with NCI-H460 lung; 1.4 µM in the experiment on 786-0 renal; 0.367 µM in the experiment on MOLT-4 leukemia; 0.419 µM in the experiment on M14 melanoma; 1.55 µM with EKVX NSCLC. Further, the GI50 is 1.48 µM in the experiment on A498 renal, 1.28 µM with SF-268 CNS, 1.4 µM in the experiment with HOP-62 NSCLC and 0.538 µM in the experiment on HT29 colon. Moreover, the TGI with SK-MEL-28 melanoma was 2.42 µM; in the experiment on NCI-H460 lung it was 3.51 µM; in the experiment with 786-0 renal it was 2.89 µM; in the experiment with MOLT-4 leukemia it was 2 µM; in the experiment with M14 melanoma, 1.73 µM; in the experiment on EKVX NSCLC, 3.22 µM. The TGI in the experiment with A498 renal was 2.89 µM; in the experiment with SF-268 CNS it was 2.78 µM; with HOP-62 NSCLC, 3.22 µM; in the experiment on HT29 colon it was 2.46 µM.
